Laboratory results: patent US8551742B2 (priority 2007, dated 2013)
Values after ≈ are worked out from the molar mass of the structure shown.

Legend:
[1] = biological target: Rickettsia high-affinity SAMe transport system (Rickettsia prowazekii, UniProt Q9ZE70); settings: Rickettsia SAMe transporter; cited from earlier work
[2] = tested on: homocysteine synthase encoded by metY from Pseudomonas aeruginosa; assay: Homocysteine synthase (MetY) activity assay (Yamagata, modified, DTNB detection)
[3] = tested on: SAMe transporter from rat liver; settings: cited from earlier work
[4] = tested on: SAMe transporter from P. carnii; settings: cited from earlier work
[5] = biological target: T1, SAMe transporter from S. cerevisiae (Saccharomyces cerevisiae, UniProt Q08986); settings: cited from earlier work
T1 sequence (Q08986 1-587): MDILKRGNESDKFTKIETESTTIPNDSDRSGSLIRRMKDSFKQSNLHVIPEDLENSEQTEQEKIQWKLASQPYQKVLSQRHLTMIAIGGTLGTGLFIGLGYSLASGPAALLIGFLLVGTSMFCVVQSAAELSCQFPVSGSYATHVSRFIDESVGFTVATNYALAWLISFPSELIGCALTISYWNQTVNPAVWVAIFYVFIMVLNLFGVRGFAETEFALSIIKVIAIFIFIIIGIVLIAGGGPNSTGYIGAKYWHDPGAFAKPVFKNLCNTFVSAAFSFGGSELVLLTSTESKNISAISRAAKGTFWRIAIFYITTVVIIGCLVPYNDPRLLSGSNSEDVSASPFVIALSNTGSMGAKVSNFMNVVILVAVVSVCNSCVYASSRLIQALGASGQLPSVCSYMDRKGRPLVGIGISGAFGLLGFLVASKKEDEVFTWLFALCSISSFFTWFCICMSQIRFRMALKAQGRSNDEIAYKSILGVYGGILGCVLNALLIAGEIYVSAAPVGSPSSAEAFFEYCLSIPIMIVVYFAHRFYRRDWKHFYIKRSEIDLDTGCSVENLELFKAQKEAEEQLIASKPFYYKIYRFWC

[6] = tested on: lower affinity L-methionine transporter (metP); settings: lower affinity transporter in E. coli; cited from earlier work
[7] = 30° C.; cited from earlier work
physchem = settings: 30 °C, water
Description: This is close to the highest concentration achievable in the assay conditions.

[8] = biological target: high affinity L-methionine transporter (metD) (Escherichia coli, UniProt P28635); settings: very high affinity transporter in E. coli; cited from earlier work
MetK [9] = assay: MetK mutants radioactive assay in vitro ([methyl-14C]methionine to SAMe); assay type: biochemical, E. coli; settings: 5 minute reaction time; C-terminal His tagged proteins unless untagged
Method: The metK gene from E. coli (Accession number AP—003499 or BAE77005) was cloned and overexpressed with either an N-terminal or a C-terminal His tag in pET28b vector. Site directed mutagenesis was performed using the C-terminal His tagged metK clone to generate the desired mutants. Expression of the mutant MetK proteins was confirmed.
The MetK mutants were purified (using the C-terminal His tag) and assayed in vitro. The wild type C-terminal His-tagged MetK protein was used as a control. The mutants were assayed using a radioactive assay. The assay conditions were as follows: • Assay Mix: • 1.0 mL 0.5 M HEPES/KOH, pH 8.0 • 0.5 mL 1.0 M KCl • 0.2 mL 1.0 M MgCl2 • 1.0 mL 100 mM ATP (disodium salt, pH 8.0 with KOH) • 0.1 mL 50 mM methionine • 0.1 mL NEN [methyl-^14C]methionine • 6.6 mL H2O • 25 mM EDTA pH 8.0 stop for assays.
45 μl of assay mix was added to an Eppendorf tube and 5 μL of enzyme (normalized data shown in Table 13. The reaction was incubated at room temperature (or 25° C.) for a desired period (1 to 10 minutes). The reaction was stopped with the addition of 150 μL of 25 mM EDTA. 100 μL of the reaction was spotted onto a 2.5 cm diameter Whatman P-81 phosphocellulose filter circle (labeled in pencil). The filters were washed with 3 L of distilled water, air-dried and placed in scintillation vials with aquasol. The emissions were counted using a window that extends from ^14C to about 0. Assay efficiency and quench levels were determined by adding a known amount of counts of pure ^14C-SAM and processing through the whole procedure. Backgrounds are typically<100 cpm (total counts ca. 10^5 cpm per reaction).

MetK [10] = settings: literature reference; cited from earlier work
O-succinylsulfhydrylase = biological target: T2, O-succinylsulfhydrylase (Pseudomonas aeruginosa, UniProt P55218); assay: In-vitro assays of O-succinylsulfhydrylase; assay type: biochemical
T2 sequence (P55218 whole entry, looked up): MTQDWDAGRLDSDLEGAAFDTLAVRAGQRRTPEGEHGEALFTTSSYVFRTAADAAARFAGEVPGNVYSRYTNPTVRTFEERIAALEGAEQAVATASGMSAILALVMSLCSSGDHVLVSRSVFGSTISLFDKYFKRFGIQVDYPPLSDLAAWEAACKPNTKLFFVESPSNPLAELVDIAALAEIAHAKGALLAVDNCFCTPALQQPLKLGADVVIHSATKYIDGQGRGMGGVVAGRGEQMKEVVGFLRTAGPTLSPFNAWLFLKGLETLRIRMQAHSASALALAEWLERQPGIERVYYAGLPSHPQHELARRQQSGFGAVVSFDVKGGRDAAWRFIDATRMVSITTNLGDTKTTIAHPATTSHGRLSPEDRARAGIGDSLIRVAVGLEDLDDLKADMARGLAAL
Method: Low methionine production of the deletion mutants transformed with metZ may be due to the limitation of sulfide in the intracellular fraction (methods of increasing sulfide concentration are provided below). This is supported by the finding that the growth of the metBC deletion strain transformed with metZ was enhanced in M9 media in the presence of 2 mM sodium sulfide. […] Through directed evolution, it is possible to develop improved O-succinylsulfhydrylases with higher sulfide affinity and also higher activity.

[11] = OAHS as substrate, 10 mM inhibitor

Chain of Rickettsia high-affinity SAMe transport system (Q9ZE70 whole entry, looked up): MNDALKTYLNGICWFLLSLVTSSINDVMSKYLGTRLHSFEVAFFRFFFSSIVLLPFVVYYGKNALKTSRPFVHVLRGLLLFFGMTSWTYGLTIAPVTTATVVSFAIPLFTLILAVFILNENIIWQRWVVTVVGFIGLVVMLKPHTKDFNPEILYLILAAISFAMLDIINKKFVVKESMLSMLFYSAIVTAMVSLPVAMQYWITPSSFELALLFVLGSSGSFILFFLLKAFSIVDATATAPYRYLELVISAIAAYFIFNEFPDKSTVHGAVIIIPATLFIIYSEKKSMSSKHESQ
Chain of high affinity L-methionine transporter (metD) (P28635 23-271): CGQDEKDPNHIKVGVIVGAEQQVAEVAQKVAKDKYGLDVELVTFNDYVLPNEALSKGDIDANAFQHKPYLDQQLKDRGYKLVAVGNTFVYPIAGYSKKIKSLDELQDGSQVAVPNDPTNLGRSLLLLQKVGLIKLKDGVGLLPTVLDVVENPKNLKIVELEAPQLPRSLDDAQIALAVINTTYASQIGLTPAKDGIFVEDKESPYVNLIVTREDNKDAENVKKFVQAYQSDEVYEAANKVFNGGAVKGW
Chain of high affinity L-methionine transporter (metD) (P30750 whole entry, further chain): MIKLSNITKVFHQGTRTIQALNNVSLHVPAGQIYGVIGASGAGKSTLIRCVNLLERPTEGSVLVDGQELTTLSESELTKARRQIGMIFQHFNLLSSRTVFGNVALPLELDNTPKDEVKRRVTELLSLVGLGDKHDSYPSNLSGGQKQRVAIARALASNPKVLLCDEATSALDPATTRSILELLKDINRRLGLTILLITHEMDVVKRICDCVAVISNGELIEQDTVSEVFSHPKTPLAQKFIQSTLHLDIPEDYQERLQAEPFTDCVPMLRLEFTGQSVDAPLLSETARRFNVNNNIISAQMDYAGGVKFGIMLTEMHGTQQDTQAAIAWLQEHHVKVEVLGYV
Chain of high affinity L-methionine transporter (metD) (P31547 whole entry, further chain): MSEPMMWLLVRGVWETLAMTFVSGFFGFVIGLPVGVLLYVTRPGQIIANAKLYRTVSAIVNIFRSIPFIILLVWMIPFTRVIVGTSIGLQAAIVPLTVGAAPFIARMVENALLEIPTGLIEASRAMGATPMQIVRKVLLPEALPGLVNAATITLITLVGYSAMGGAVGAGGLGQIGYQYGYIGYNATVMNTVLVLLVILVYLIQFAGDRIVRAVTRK

C[S+](CC[C@H](N)C(=O)O)C[C@H]1O[C@@H](n2cnc3c(N)ncnc32)[C@H](O)[C@@H]1O (stereo partly drawn) [SAMe, S-adenosylmethionine]
KT [1]: 2 to 8 µM | activity retained relative to absence of inhibitor ([2]; OAHS as substrate, 5 mM inhibitor): approximately 72% | activity retained relative to absence of inhibitor [2, 11]: ~21% | activity retained relative to absence of inhibitor ([2]; OSHS as substrate, 5 mM inhibitor): 86% | activity retained relative to absence of inhibitor ([2]; OSHS as substrate, 10 mM inhibitor): 19% | KT [3]: 8.9 µM | KT [4]: 4.5 µM | KT [5]: 3.3 µM

CSCC[C@H](N)C(=O)O [methionine]
Km [6]: 20 to 40 µM | solubility in water [7]: 5.6 g/100 mL | solubility (physchem): 375000 µM (≈ 56 mg/mL) | inhibition of MetY ([2]; 1 mM methionine): Some inhibition | activity retained relative to absence of inhibitor [2, 11]: about 50% | activity retained relative to absence of inhibitor ([2]; OAHS as substrate, 50 mM inhibitor): ~19% | activity retained relative to absence of inhibitor ([2]; OAHS as substrate, 100 mM inhibitor): ~9% | activity retained relative to absence of inhibitor ([2]; OSHS as substrate, 50 mM inhibitor): 53% | activity retained relative to absence of inhibitor ([2]; OSHS as substrate, 100 mM inhibitor): 31% | Km [8]: 0.1 to 0.13 µM

B1: Lys 245 Met (protein, UniProt P0A817 2-384, looked up, variant K245M)
S-adenosylmethionine synthase: AKHLFTSESVSEGHPDKIADQISDAVLDAILEQDPKARVACETYVKTGMVLVGGEITTSAWVDIEEITRNTVREIGYVHSDMGFDANSCAVLSAIGKQSPDINQGVDRADPLEQGAGDQGLMFGYATNETDVLMPAPITYAHRLVQRQAEVRKNGTLPWLRPDAKSQVTFQYDDGKIVGIDAVVLSTQHSEEIDQKSLQEAVMEEIIKPILPAEWLTSATKFFINPTGRFVIGGPMGDCGLTGRMIIVDTYGGMARHGGGAFSGKDPSKVDRSAAYAARYVAKNIVAAGLADRCEIQVSYAIGVAEPTSIMVETFGTEKVPSEQLTLLVREFFDLRPYGLIQMLDLLHPIYKETAAYGHFGREHFPWEKTDKAQLLRDAAGLK
Activity (CPM SAMe/ μg purified protein/min) (MetK [9]): 2.5 CPM SAMe/ μg purified protein/min | Expected Effect on SAMe synth: activity reduced / lower activity than WT (MetK [10]): 42,000 fold

B2: Asp 271 Ala (protein, UniProt P0A817 2-384, looked up, variant D271A)
S-adenosylmethionine synthase: AKHLFTSESVSEGHPDKIADQISDAVLDAILEQDPKARVACETYVKTGMVLVGGEITTSAWVDIEEITRNTVREIGYVHSDMGFDANSCAVLSAIGKQSPDINQGVDRADPLEQGAGDQGLMFGYATNETDVLMPAPITYAHRLVQRQAEVRKNGTLPWLRPDAKSQVTFQYDDGKIVGIDAVVLSTQHSEEIDQKSLQEAVMEEIIKPILPAEWLTSATKFFINPTGRFVIGGPMGDCGLTGRKIIVDTYGGMARHGGGAFSGKDPSKVARSAAYAARYVAKNIVAAGLADRCEIQVSYAIGVAEPTSIMVETFGTEKVPSEQLTLLVREFFDLRPYGLIQMLDLLHPIYKETAAYGHFGREHFPWEKTDKAQLLRDAAGLK
Activity (CPM SAMe/ μg purified protein/min) (MetK [9]): 0.4 (not duplicated) CPM SAMe/ μg purified protein/min | Expected Effect on SAMe synth: kcat reduction (MetK [10]): kcat reduction of ~ 103 fold

B3: Asp 16 Asn (protein, UniProt P0A817 2-384, looked up, variant D16N)
S-adenosylmethionine synthase: AKHLFTSESVSEGHPNKIADQISDAVLDAILEQDPKARVACETYVKTGMVLVGGEITTSAWVDIEEITRNTVREIGYVHSDMGFDANSCAVLSAIGKQSPDINQGVDRADPLEQGAGDQGLMFGYATNETDVLMPAPITYAHRLVQRQAEVRKNGTLPWLRPDAKSQVTFQYDDGKIVGIDAVVLSTQHSEEIDQKSLQEAVMEEIIKPILPAEWLTSATKFFINPTGRFVIGGPMGDCGLTGRKIIVDTYGGMARHGGGAFSGKDPSKVDRSAAYAARYVAKNIVAAGLADRCEIQVSYAIGVAEPTSIMVETFGTEKVPSEQLTLLVREFFDLRPYGLIQMLDLLHPIYKETAAYGHFGREHFPWEKTDKAQLLRDAAGLK
Activity (CPM SAMe/ μg purified protein/min) (MetK [9]): 2.5 CPM SAMe/ μg purified protein/min | Expected Effect on SAMe synth: kcat reduction (MetK [10]): kcat reduction of ~ 103 fold

B4: His 14 Asn (protein, UniProt P0A817 2-384, looked up, variant H14N)
S-adenosylmethionine synthase: AKHLFTSESVSEGNPDKIADQISDAVLDAILEQDPKARVACETYVKTGMVLVGGEITTSAWVDIEEITRNTVREIGYVHSDMGFDANSCAVLSAIGKQSPDINQGVDRADPLEQGAGDQGLMFGYATNETDVLMPAPITYAHRLVQRQAEVRKNGTLPWLRPDAKSQVTFQYDDGKIVGIDAVVLSTQHSEEIDQKSLQEAVMEEIIKPILPAEWLTSATKFFINPTGRFVIGGPMGDCGLTGRKIIVDTYGGMARHGGGAFSGKDPSKVDRSAAYAARYVAKNIVAAGLADRCEIQVSYAIGVAEPTSIMVETFGTEKVPSEQLTLLVREFFDLRPYGLIQMLDLLHPIYKETAAYGHFGREHFPWEKTDKAQLLRDAAGLK
Activity (CPM SAMe/ μg purified protein/min) (MetK [9]): 7.7 CPM SAMe/ μg purified protein/min | Expected Effect on SAMe synth: activity reduced / lower activity than WT (MetK [10]): Activity reduced ~ 104 fold

B5: O-succinylsulfhydrylase: O-succinylsulfhydrylase (EC 4.2.99.-) codified by metZ from Pseudomonas aeruginosa (protein, UniProt P55218 1-403, looked up)
O-succinylhomoserine …: MTQDWDAGRLDSDLEGAAFDTLAVRAGQRRTPEGEHGEALFTTSSYVFRTAADAAARFAGEVPGNVYSRYTNPTVRTFEERIAALEGAEQAVATASGMSAILALVMSLCSSGDHVLVSRSVFGSTISLFDKYFKRFGIQVDYPPLSDLAAWEAACKPNTKLFFVESPSNPLAELVDIAALAEIAHAKGALLAVDNCFCTPALQQPLKLGADVVIHSATKYIDGQGRGMGGVVAGRGEQMKEVVGFLRTAGPTLSPFNAWLFLKGLETLRIRMQAHSASALALAEWLERQPGIERVYYAGLPSHPQHELARRQQSGFGAVVSFDVKGGRDAAWRFIDATRMVSITTNLGDTKTTIAHPATTSHGRLSPEDRARAGIGDSLIRVAVGLEDLDDLKADMARGLAAL
sulfide affinity (O-succinylsulfhydrylase): low sulfide affinity
